According to ChEMBL document CHEMBL5291721, “A preclinical secondary pharmacology resource illuminates target-adverse drug reaction associations of marketed drugs” (Nat Commun, 2023):

How the values were obtained:
[1] = biological target: T1, Prostaglandin G/H synthase 1 (Rattus norvegicus, UniProt Q63921); format: functional
T1 sequence (Q63921 whole entry): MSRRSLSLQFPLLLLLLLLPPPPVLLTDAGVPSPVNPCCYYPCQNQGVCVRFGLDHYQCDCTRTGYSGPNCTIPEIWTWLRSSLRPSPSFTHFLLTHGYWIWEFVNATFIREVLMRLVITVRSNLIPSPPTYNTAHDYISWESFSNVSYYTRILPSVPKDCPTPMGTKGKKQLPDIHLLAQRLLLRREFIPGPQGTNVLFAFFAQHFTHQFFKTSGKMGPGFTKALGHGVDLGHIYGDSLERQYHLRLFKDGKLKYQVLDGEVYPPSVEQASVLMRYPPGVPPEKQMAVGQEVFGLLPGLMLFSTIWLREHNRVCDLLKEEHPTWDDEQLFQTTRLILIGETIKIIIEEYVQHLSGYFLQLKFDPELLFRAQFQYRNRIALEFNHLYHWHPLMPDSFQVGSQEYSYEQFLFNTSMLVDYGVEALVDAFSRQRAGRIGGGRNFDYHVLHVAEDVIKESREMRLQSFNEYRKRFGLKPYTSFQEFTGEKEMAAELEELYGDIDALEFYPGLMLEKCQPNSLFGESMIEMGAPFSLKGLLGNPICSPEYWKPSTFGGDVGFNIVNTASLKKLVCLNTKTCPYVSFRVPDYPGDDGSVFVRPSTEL

[2] = biological target: Histamine H2 receptor (Homo sapiens, UniProt P25021); format: functional, cell-based
Chain of Histamine H2 receptor (P25021 whole entry): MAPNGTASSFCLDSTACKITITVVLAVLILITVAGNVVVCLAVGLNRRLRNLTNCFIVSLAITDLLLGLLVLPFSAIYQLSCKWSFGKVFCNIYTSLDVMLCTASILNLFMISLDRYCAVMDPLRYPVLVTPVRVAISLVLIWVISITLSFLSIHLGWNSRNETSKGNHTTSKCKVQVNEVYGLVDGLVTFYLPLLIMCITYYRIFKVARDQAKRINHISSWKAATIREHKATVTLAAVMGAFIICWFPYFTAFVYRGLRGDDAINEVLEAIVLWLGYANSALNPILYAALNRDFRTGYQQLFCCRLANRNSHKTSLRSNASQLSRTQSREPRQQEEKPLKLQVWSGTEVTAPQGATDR

[3] = biological target: 5-hydroxytryptamine receptor 2B (Homo sapiens, UniProt P41595); format: functional, cell-based
Chain of 5-hydroxytryptamine receptor 2B (P41595 whole entry): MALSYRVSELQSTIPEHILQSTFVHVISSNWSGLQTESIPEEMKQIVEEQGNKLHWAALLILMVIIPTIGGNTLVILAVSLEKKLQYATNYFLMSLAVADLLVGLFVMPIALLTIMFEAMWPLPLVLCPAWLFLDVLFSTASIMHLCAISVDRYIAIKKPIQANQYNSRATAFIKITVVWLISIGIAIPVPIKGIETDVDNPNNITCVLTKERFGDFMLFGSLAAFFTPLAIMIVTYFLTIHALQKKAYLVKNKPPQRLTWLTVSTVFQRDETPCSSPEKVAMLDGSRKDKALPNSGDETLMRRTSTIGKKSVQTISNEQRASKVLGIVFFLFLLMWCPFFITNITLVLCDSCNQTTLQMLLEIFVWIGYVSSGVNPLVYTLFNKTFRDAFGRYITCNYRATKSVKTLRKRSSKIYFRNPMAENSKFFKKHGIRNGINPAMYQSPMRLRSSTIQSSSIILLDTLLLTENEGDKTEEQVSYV

[4] = biological target: T2, Alpha-2A adrenergic receptor (Homo sapiens, UniProt P08913); format: functional, cell-based
T2 sequence (P08913 whole entry): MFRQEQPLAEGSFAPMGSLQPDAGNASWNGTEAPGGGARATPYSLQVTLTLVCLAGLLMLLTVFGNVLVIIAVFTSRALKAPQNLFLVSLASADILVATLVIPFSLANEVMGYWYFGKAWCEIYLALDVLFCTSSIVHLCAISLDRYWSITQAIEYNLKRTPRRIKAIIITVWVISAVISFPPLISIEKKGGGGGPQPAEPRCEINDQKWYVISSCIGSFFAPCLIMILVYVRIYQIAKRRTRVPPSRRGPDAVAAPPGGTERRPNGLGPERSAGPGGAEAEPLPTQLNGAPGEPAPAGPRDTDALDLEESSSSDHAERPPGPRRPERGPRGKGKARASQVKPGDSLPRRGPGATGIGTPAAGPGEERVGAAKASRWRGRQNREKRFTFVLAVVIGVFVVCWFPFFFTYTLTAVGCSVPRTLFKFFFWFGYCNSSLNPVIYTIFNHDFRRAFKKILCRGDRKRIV

[5] = biological target: cGMP-inhibited 3',5'-cyclic phosphodiesterase 3A (Homo sapiens, UniProt Q14432); format: functional
Chain of cGMP-inhibited 3',5'-cyclic phosphodiesterase 3A (Q14432 whole entry): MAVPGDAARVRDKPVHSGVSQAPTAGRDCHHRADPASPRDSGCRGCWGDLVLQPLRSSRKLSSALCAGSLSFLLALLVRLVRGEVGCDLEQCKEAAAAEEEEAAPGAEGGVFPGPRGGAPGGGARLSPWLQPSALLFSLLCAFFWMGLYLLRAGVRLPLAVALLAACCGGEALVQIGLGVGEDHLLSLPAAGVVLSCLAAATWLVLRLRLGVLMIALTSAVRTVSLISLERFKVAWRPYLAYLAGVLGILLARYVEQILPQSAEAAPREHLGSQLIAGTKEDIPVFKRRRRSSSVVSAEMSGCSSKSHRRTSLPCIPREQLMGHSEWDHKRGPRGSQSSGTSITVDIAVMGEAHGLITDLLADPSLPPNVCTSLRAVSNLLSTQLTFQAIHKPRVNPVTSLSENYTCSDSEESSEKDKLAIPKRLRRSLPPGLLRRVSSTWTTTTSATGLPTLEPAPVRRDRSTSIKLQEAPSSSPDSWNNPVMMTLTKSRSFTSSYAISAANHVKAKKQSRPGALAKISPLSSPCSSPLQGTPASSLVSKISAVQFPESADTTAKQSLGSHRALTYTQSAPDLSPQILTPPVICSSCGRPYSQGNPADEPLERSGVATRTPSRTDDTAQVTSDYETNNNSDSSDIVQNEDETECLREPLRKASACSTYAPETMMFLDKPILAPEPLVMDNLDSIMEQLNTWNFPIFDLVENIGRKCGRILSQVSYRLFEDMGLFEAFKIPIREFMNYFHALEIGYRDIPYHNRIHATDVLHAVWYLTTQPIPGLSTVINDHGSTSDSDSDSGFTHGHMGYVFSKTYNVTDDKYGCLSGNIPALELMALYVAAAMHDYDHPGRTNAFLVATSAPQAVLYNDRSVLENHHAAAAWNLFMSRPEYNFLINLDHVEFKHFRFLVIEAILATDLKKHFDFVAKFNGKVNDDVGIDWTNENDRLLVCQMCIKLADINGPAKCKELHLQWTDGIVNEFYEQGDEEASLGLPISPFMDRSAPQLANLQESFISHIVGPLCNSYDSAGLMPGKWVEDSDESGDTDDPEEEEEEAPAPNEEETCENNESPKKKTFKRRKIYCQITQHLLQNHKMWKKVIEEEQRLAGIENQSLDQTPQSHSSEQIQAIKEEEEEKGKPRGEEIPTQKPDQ

[6] = biological target: D(1A) dopamine receptor (Homo sapiens, UniProt P21728); format: functional, cell-based
Chain of D(1A) dopamine receptor (P21728 whole entry): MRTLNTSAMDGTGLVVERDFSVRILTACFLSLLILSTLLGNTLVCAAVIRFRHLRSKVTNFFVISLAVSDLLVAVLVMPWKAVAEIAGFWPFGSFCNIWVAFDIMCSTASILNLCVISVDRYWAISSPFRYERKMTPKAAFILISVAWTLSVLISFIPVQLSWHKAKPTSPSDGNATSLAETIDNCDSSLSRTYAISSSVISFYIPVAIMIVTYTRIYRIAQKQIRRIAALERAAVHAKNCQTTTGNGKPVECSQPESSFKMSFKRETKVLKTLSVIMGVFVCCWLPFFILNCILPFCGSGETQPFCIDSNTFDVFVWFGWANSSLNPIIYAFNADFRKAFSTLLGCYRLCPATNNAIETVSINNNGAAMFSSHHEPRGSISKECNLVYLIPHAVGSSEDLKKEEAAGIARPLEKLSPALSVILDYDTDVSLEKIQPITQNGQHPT

[7] = biological target: Gamma-aminobutyric acid receptor subunit alpha-1 (Rattus norvegicus, UniProt P62813)
Chain of Gamma-aminobutyric acid receptor subunit alpha-1 (P62813 whole entry): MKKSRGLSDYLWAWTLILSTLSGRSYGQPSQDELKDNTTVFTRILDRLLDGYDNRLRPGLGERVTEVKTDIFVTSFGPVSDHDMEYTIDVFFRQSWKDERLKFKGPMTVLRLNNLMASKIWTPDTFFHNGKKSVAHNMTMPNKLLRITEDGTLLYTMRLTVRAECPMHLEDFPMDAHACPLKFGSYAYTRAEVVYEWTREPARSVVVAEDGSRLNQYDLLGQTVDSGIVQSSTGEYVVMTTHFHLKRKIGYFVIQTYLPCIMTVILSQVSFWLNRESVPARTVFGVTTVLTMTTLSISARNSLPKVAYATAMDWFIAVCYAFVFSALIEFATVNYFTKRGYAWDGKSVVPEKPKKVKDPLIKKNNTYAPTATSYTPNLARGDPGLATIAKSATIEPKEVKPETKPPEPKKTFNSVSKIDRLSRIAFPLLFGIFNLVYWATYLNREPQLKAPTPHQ

[8] = biological target: T3, Muscarinic acetylcholine receptor M2 (Homo sapiens, UniProt P08172); format: functional, cell-based
T3 sequence (P08172 whole entry): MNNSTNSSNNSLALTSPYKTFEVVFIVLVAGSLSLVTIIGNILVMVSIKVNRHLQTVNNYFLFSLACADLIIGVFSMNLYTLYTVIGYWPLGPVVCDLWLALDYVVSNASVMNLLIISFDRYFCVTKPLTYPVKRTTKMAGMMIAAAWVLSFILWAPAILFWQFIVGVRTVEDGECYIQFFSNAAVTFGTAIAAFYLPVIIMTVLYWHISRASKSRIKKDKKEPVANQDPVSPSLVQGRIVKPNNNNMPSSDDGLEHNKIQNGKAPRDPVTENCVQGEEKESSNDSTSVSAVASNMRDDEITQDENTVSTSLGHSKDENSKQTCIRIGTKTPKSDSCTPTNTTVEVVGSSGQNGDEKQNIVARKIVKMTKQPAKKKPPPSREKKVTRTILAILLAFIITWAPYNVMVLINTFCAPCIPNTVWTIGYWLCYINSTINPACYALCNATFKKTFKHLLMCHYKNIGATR

[9] = biological target: T4, Alpha-1A adrenergic receptor (Homo sapiens, UniProt P35348); format: functional, cell-based
T4 sequence (P35348 whole entry): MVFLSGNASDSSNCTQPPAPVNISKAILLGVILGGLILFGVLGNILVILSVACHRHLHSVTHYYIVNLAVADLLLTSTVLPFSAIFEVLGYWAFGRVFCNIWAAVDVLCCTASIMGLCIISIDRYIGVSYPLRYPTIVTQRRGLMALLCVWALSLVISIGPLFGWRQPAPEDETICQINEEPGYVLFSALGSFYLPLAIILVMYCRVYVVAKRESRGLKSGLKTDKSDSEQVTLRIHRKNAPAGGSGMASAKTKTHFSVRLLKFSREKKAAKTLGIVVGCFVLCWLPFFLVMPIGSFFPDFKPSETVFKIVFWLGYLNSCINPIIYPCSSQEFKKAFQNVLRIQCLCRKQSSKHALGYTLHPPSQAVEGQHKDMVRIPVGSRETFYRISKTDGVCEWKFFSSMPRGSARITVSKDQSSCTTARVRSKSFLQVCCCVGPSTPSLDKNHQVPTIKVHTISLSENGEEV

[10] = biological target: T5, Amine oxidase [flavin-containing] A (Homo sapiens, UniProt P21397); format: functional
T5 sequence (P21397 whole entry): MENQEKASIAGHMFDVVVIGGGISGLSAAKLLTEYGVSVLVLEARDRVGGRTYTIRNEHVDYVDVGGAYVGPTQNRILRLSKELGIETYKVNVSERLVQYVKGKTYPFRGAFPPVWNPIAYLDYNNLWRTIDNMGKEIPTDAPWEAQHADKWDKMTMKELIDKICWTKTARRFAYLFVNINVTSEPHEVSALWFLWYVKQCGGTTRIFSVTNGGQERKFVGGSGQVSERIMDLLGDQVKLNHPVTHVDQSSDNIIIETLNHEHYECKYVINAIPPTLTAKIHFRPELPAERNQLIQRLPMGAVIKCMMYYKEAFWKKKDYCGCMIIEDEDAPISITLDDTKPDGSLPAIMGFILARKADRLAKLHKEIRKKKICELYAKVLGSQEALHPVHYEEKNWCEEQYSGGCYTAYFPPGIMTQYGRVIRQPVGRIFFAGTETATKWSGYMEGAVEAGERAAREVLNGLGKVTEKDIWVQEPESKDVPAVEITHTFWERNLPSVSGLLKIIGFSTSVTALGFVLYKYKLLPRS

[11] = biological target: Melanocortin receptor 3 (Homo sapiens, UniProt P41968)
Chain of Melanocortin receptor 3 (P41968 whole entry): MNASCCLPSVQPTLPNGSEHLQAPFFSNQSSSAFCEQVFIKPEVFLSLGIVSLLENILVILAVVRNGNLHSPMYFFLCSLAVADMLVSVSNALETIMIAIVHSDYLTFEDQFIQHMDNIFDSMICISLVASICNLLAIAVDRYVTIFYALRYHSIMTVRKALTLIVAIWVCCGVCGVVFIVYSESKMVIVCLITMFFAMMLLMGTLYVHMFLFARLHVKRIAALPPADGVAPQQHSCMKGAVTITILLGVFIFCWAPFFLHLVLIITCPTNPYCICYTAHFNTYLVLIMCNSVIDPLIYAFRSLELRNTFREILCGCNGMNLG
Further: assay procedure not described here.

| Compound | AC50 [1] [µM] | AC50 [2] [µM] | AC50 [3] [µM] | AC50 [4] [µM] | AC50 [5] [µM] | AC50 [6] [µM] | AC50 [7] [µM] | AC50 [8] [µM] | AC50 [9] [µM] | AC50 [10] [µM] | AC50 [11] [µM] |
| --- | --- | --- | --- | --- | --- | --- | --- | --- | --- | --- | --- |
| CC(=O)N(CC(O)CO)c1c(I)c(C(=O)NCC(O)CO)c(I)c(C(=O)NCC(O)CO)c1I (configuration not stated) [IOHEXOL] | > 30 | > 10 | > 10 | > 10 | > 30 | > 10 | > 10 | > 10 | > 30 | > 10 | > 30 |
| N[C@@H](CSCC(=O)O)C(=O)O [CARBOCYSTEINE] | > 30 | > 30 | > 30 | > 30 | > 30 | > 30 | > 30 | > 30 | > 30 | > 30 | > 30 |
| O=P(O)(O)C(O)(Cc1cccnc1)P(=O)(O)O [RISEDRONIC ACID] | > 30 | > 10 | > 30 | > 30 | 7.14 | > 30 | > 30 | > 30 | > 30 | > 30 | > 30 |
| C=C1C[C@@H]2[C@H](CC[C@]3(C)C(=O)CC[C@@H]23)[C@@]2(C)C=CC(=O)C=C12 [EXEMESTANE] | > 30 | > 10 | > 10 | > 10 | > 30 | > 10 | > 10 | > 10 | > 30 | > 10 | > 30 |
| CC(C(O)c1ccc(O)cc1)N1CCC(Cc2ccccc2)CC1 (configuration not stated) [IFENPRODIL] | > 30 | > 30 | > 30 | > 30 | > 30 | > 30 | > 30 | > 30 | > 30 | > 30 | > 30 |
| CC(C)(N)Cc1ccc(Cl)cc1 [CHLORPHENTERMINE] | > 30 | > 10 | > 10 | > 10 | > 30 | > 10 | > 10 | > 10 | > 30 | > 10 | > 30 |
| NS(=O)(=O)c1cc(-c2nnn[nH]2)c(NCc2cccs2)cc1Cl [AZOSEMIDE] | 19 | > 30 | > 30 | > 30 | 19 | > 30 | > 30 | > 30 | > 30 | > 30 | > 30 |
| O=C(Cn1ccnc1[N+](=O)[O-])NCc1ccccc1 [BENZNIDAZOLE] | > 30 | > 30 | > 30 | > 30 | > 30 | > 30 | > 30 | > 30 | > 30 | > 30 | > 30 |
| O=C1CCC(N2C(=O)c3ccccc3C2=O)C(=O)N1 (configuration not stated) [THALIDOMIDE] | > 30 | > 10 | > 10 | > 10 | > 30 | > 10 | > 10 | > 10 | > 30 | > 10 | > 30 |
| C[N+](C)(C)CC(=O)O [BETAINE] | > 30 | > 30 | > 30 | > 30 | > 30 | > 30 | > 30 | > 30 | > 30 | > 30 | > 30 |
| CCCC(=O)N1CCCN(c2nc(N)c3cc(OC)c(OC)cc3n2)CC1 [BUNAZOSIN] | > 30 | > 30 | > 30 | > 30 | > 30 | > 30 | > 30 | > 30 | > 30 | > 30 | > 30 |
| CC(C)NCC1CCc2cc(CO)c([N+](=O)[O-])cc2N1 (configuration not stated) [OXAMNIQUINE] | > 10 | > 10 | > 10 | > 10 | > 30 | > 10 | > 10 | > 10 | > 30 | > 10 | > 10 |
